# Laboratory results published in publication PMC8617031, “Development of a BCL-xL and BCL-2 dual degrader with improved anti-leukemic activity,” (Nature Communications, 2021).
# Several values for one entry are separate records, joined by “and”; a condition that tells them apart may be missing. Identical values can stand only once.
# What was measured:
# BCL-xL = target: T1, BCL-xL (Homo sapiens, UniProt Q07817); experiment: BCL-xL degradation by immunoblot in 293T cells; assay type: cell-based; settings: for DC50: 293T cells, four concentrations, 16 h, Fig. 2b, read-out: BCL-xL DC50; for Dmax: HEK-293T
# T1 construct: endogenous in cells
# Procedure, shortened: (§1)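 Immunoblot of 293T cell lysates (RIPA, 20–40 μg protein per lane) with β-actin as loading control and chemiluminescent detection. Bands quantified by densitometry and normalized; DC50 and Dmax derived from the quantified blots, n = 3 biologically independent experiments.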
# [1] = target: T2, BCL-xL/PROTAC/VHL-ELOC-ELOB (VCB) ternary complex (Homo sapiens, UniProt P40337+Q07817); experiment: AlphaLISA ternary complex formation, cell-free, BCL-xL; assay type: binding; settings: for in vitro ternary complex formation with BCL-xL (in words): AlphaLISA, cell-free, Fig. 2c, 3e
# T2 construct: pGEX-6P-1-VHL(54-213) (pDL2200) was constructed through Gibson assembly method; made in house; host or cells: bacterial culture (LB broth, IPTG induction)
# Procedure, shortened: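 Cell-free AlphaLISA: 5 nM His-tagged BCL-xL or BCL-2 plus 5 nM GST-VCB incubated with fourfold serially diluted compound 30 min at room temperature. Glutathione donor and His acceptor beads (20 µg/ml each) then added for 15 and 45 min; AlphaLISA signal plotted against compound concentration.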
# BCL-2 = target: T3, BCL-2 (Homo sapiens, UniProt P10415); experiment: BCL-2 degradation by immunoblot in 293T cells; assay type: cell-based; settings: for BCL-2 degradation (in words) / DC50: 293T cells, 16 h; for Dmax: HEK-293T; for DC50: four concentrations, Fig. 2b, read-out: BCL-2 DC50
# T3 construct: endogenous in cells
# Procedure, shortened: as §1
# [2] = compound 0.191 nM, Fig. 2c raw Alpha reads
# [3] = compound 0.763 nM, Fig. 2c raw Alpha reads
# [4] = compound 3.052 nM, Fig. 2c raw Alpha reads
# [5] = compound 12.207 nM, Fig. 2c raw Alpha reads
# [6] = compound 48.828 nM, Fig. 2c raw Alpha reads
# [7] = compound 195.31 nM, Fig. 2c raw Alpha reads
# [8] = compound 781.25 nM, Fig. 2c raw Alpha reads
# [9] = compound 3125 nM, Fig. 2c raw Alpha reads
# [10] = compound 12500 nM, Fig. 2c raw Alpha reads
# [11] = compound 50000 nM, Fig. 2c raw Alpha reads
# [12] = compound 200000 nM, Fig. 2c raw Alpha reads, 2 technical replicates
# T1 sequence (Q07817 whole entry): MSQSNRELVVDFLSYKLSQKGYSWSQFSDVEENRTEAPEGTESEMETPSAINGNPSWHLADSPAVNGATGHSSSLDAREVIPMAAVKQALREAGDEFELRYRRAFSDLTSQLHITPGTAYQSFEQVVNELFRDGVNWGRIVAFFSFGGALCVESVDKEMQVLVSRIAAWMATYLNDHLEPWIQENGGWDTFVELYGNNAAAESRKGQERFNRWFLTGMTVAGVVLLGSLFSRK
# T2 sequence (Q07817 1-212 limits assumed): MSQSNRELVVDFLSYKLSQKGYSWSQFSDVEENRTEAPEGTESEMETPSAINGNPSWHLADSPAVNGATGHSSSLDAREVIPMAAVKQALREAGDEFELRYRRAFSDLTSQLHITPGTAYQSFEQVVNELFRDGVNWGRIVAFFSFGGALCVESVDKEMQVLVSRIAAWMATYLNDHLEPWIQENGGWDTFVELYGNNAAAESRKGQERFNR
# T2 sequence (P40337 54-213 limits assumed): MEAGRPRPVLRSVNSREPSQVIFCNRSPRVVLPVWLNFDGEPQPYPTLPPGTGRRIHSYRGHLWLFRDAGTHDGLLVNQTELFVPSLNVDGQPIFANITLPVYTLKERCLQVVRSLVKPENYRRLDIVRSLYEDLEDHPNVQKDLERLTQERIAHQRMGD
# T2 sequence (Q15369 17-112 partner limits assumed): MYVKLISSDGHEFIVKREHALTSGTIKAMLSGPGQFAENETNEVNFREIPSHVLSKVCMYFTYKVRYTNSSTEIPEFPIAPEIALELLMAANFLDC
# T2 sequence (Q15370 whole entry partner): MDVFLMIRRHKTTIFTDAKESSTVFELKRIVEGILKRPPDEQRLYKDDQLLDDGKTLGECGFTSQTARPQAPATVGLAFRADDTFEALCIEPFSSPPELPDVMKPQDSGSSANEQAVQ
# T3 sequence (P10415 whole entry): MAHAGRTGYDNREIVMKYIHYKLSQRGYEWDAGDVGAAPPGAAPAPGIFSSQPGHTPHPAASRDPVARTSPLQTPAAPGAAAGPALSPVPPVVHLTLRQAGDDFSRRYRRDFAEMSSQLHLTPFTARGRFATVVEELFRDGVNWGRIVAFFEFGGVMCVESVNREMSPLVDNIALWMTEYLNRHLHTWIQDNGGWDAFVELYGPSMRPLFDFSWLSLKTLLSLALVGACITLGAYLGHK
SMILES,DC50 (BCL-xL),Dmax (BCL-xL),"AlphaLISA signal, BCL-xL/PROTAC/VCB [1, 2]","AlphaLISA signal, BCL-xL/PROTAC/VCB [1, 3]","AlphaLISA signal, BCL-xL/PROTAC/VCB [1, 4]","AlphaLISA signal, BCL-xL/PROTAC/VCB [1, 5]","AlphaLISA signal, BCL-xL/PROTAC/VCB [1, 6]","AlphaLISA signal, BCL-xL/PROTAC/VCB [1, 7]","AlphaLISA signal, BCL-xL/PROTAC/VCB [1, 8]","AlphaLISA signal, BCL-xL/PROTAC/VCB [1, 9]","AlphaLISA signal, BCL-xL/PROTAC/VCB [1, 10]","AlphaLISA signal, BCL-xL/PROTAC/VCB [1, 11]","AlphaLISA signal, BCL-xL/PROTAC/VCB [1, 12]",BCL-2 degradation (in words) (BCL-2),Dmax (BCL-2),in vitro ternary complex formation with BCL-xL (in words) [1],DC50 (BCL-2),further results
Cc1ncsc1-c1ccc([C@H](C)NC(=O)[C@@H]2C[C@@H](O)CN2C(=O)[C@@H](NC(=O)CCCCCC(=O)N2CCN(CC[C@H](CSc3ccccc3)Nc3ccc(S(=O)(=O)NC(=O)c4ccc(N5CCN(CC6=C(c7ccc(Cl)cc7)CCC(C)(C)C6)CC5)cc4)cc3S(=O)(=O)C(F)(F)F)CC2)C(C)(C)C)cc1 [DT2216],0.0203 µM,92%,16719 and 10405,18311 and 16968,25910 and 22328,86818 and 83277,487236 and 509576,1016591 and 916263,880317 and 910855,660864 and 590073,241490 and 226854,34465 and 29535,19406 and 20996,did not induce BCL-2 degradation,0%,,,"AlphaLISA signal, BCL-xL/PROTAC/VCB ([1]; compound 0.19 nM, Fig. 3e raw Alpha reads): 24660 and 20115; AlphaLISA signal, BCL-xL/PROTAC/VCB ([1]; compound 0.76 nM, Fig. 3e raw Alpha reads): 36507 and 38317; AlphaLISA signal, BCL-xL/PROTAC/VCB ([1]; compound 3.05 nM, Fig. 3e raw Alpha reads): 66449 and 60221; AlphaLISA signal, BCL-xL/PROTAC/VCB ([1]; compound 12.21 nM, Fig. 3e raw Alpha reads): 409606 and 406374; AlphaLISA signal, BCL-xL/PROTAC/VCB ([1]; compound 48.83 nM, Fig. 3e raw Alpha reads): 1004765 and 1011127; AlphaLISA signal, BCL-xL/PROTAC/VCB ([1]; compound 195.31 nM, Fig. 3e raw Alpha reads): 1443448 and 1418663; AlphaLISA signal, BCL-xL/PROTAC/VCB ([1]; compound 781.25 nM, Fig. 3e raw Alpha reads): 1065855 and 975587; AlphaLISA signal, BCL-xL/PROTAC/VCB ([1]; compound 3125 nM, Fig. 3e raw Alpha reads): 557160 and 572089; AlphaLISA signal, BCL-xL/PROTAC/VCB ([1]; compound 12500 nM, Fig. 3e raw Alpha reads): 200468 and 154034; AlphaLISA signal, BCL-xL/PROTAC/VCB ([1]; compound 50000 nM, Fig. 3e raw Alpha reads, 2 technical replicates): 37331 and 41699"
Cc1ncsc1-c1ccc([C@H](C)NC(=O)[C@@H]2C[C@@H](O)CN2C(=O)[C@@H](NC(=O)CCCCC(=O)N2CCN(CC3(C)CCC(c4ccc(Cl)cc4)=C(CN4CCN(c5ccc(C(=O)NS(=O)(=O)c6ccc(N[C@H](CCN7CCOCC7)CSc7ccccc7)c(S(=O)(=O)C(F)(F)F)c6)cc5)CC4)C3)CC2)C(C)(C)C)cc1 (stereo partly shown) [PPC6],0.0399 µM,91%,15802 and 16724,18968 and 16877,31177 and 28685,217997 and 245739,796343 and 866530,952961 and 938632,936762 and 1084189,603765 and 595968,155340 and 139952,73929 and 84434,25477 and 29119,,47%,stronger ternary complexes,,

# Now those with a lower DC50 (BCL-xL), led by results:
DC50 (BCL-xL),Dmax (BCL-xL),"AlphaLISA signal, BCL-xL/PROTAC/VCB [1, 2]","AlphaLISA signal, BCL-xL/PROTAC/VCB [1, 3]","AlphaLISA signal, BCL-xL/PROTAC/VCB [1, 4]","AlphaLISA signal, BCL-xL/PROTAC/VCB [1, 5]","AlphaLISA signal, BCL-xL/PROTAC/VCB [1, 6]","AlphaLISA signal, BCL-xL/PROTAC/VCB [1, 7]","AlphaLISA signal, BCL-xL/PROTAC/VCB [1, 8]","AlphaLISA signal, BCL-xL/PROTAC/VCB [1, 9]","AlphaLISA signal, BCL-xL/PROTAC/VCB [1, 10]","AlphaLISA signal, BCL-xL/PROTAC/VCB [1, 11]","AlphaLISA signal, BCL-xL/PROTAC/VCB [1, 12]",BCL-2 degradation (in words) (BCL-2),Dmax (BCL-2),in vitro ternary complex formation with BCL-xL (in words) [1],DC50 (BCL-2),SMILES,further results
0.0129 µM,94%,19077 and 19160,16314 and 16977,21818 and 20322,112726 and 99392,824374 and 896013,1441307 and 1441293,1280941 and 1272724,836346 and 758740,257313 and 288328,78225 and 86140,21117 and 20625,also degraded BCL-2,94%,stronger ternary complexes,0.054 µM,Cc1ncsc1-c1ccc([C@H](C)NC(=O)[C@@H]2C[C@@H](O)CN2C(=O)[C@@H](NC(=O)CCCCCCC(=O)N2CCN(CC3(C)CCC(c4ccc(Cl)cc4)=C(CN4CCN(c5ccc(C(=O)NS(=O)(=O)c6ccc(N[C@H](CCN7CCOCC7)CSc7ccccc7)c(S(=O)(=O)C(F)(F)F)c6)cc5)CC4)C3)CC2)C(C)(C)C)cc1 (stereo partly shown) [PPC8],
0.0128 µM,85%,16342 and 14008,13825 and 16199,18964 and 20836,75292 and 75299,594562 and 681817,1206651 and 1333081,1103207 and 1035637,530944 and 584971,158302 and 141290,39339 and 47417,23853 and 20524,also degraded BCL-2,79%,stronger ternary complexes,0.18 µM,Cc1ncsc1-c1ccc([C@H](C)NC(=O)[C@@H]2C[C@@H](O)CN2C(=O)[C@@H](NC(=O)CCCCCC(=O)N2CCN(CC3(C)CCC(c4ccc(Cl)cc4)=C(CN4CCN(c5ccc(C(=O)NS(=O)(=O)c6ccc(N[C@H](CCN7CCOCC7)CSc7ccccc7)c(S(=O)(=O)C(F)(F)F)c6)cc5)CC4)C3)CC2)C(C)(C)C)cc1 (stereo partly shown) [PPC7],
0.0128 µM,96%,17022 and 14292,18582 and 21901,16005 and 18766,39343 and 38049,159552 and 171121,340009 and 336400,265891 and 255043,73854 and 131135,17390 and 24043,11384 and 10586,11935 and 10943,also degraded BCL-2,79%,much weaker ternary complexes,0.316 µM,Cc1ncsc1-c1ccc([C@H](C)NC(=O)[C@@H]2C[C@@H](O)CN2C(=O)[C@@H](NC(=O)CCCCCCCC(=O)N2CCN(CC3(C)CCC(c4ccc(Cl)cc4)=C(CN4CCN(c5ccc(C(=O)NS(=O)(=O)c6ccc(N[C@H](CCN7CCOCC7)CSc7ccccc7)c(S(=O)(=O)C(F)(F)F)c6)cc5)CC4)C3)CC2)C(C)(C)C)cc1 (stereo partly shown) [PPC9],
